# Results reported in patent publication US4363805A, “Aminodesoxy-1.4;3.6-dianhydrohexitol nitrates and pharmaceutical composition” (Firma Willmar Schwabe, priority 1980, dated 1982).
# Assays:
# [1] = system: isolated guinea pig hearts; test: Experiments on Langendorff hearts (coronary flowthrough, inotropism, frequency); conditions: Cavia porcellus, read-out: flowthrough, percentage change with regard to the initial value
# Protocol: After reaching the stationary state in the 30th minute, the hearts were each perfused with 50 ml. tyrode solution with a content of test substance of, in each case, 25 μg./ml. Each test substance was tested on 3-6 hearts.
# In each case, there was measured the inotropism, the flowthrough and the frequency, whereby the values given in Table I are average values of the percentage changes in comparison with the initial values.
# narcotised guinea pigs = test: Blood pressure experiments on guinea pigs, i.v.; format: in vivo, guinea pig; conditions: for blood pressure before: before administration
# [2] = Acute toxicity, intravenous, mice; format: in vivo; conditions: mouse, in vivo; intravenous, within 24 hours; read-out: Evaluated LD50-range
# female NMRI-albino mice = test: Acute toxicity, intravenous, mice; format: in vivo; conditions: within 24 hours
# mongrel cats = test: Inotropic and heart-circulatory effectiveness on narcotised cats, intravenous; format: in vivo, cat; conditions: 6 animals; for blood pressure before / dp/dt (inotropism) before / heart frequency before: before administration
smiles,measurement,setting,value
"CC(C)(C)C(=O)N[C@H]1CO[C@H]2[C@@H]1OC[C@@H]2O[N+](=O)[O-] [Example 5, 5-Pivaloylamino-5-desoxy-1.4;3.6-dianhydro-L-iditol 2-nitrate]",activation at 25 µg/mL,[1],21.2%
same,blood pressure after,narcotised guinea pigs; 0.25 mg/kg i.v.,54.00 ± 2.52 mm.Hg
same,blood pressure Δ,narcotised guinea pigs; 0.25 mg/kg i.v.,-10.50 mm.Hg
same,blood pressure before,narcotised guinea pigs; 0.25 mg/kg i.v.,64.50 ± 2.75 mm.Hg
same,blood pressure after,narcotised guinea pigs; 1.00 mg/kg i.v.,40.50 ± 3.66 mm.Hg
same,blood pressure Δ,narcotised guinea pigs; 1.00 mg/kg i.v.,-22.75 mm.Hg
same,blood pressure after,narcotised guinea pigs; 2.50 mg/kg i.v.,30.75 ± 8.60 mm.Hg
same,blood pressure Δ,narcotised guinea pigs; 2.50 mg/kg i.v.,-31.75 mm.Hg
same,blood pressure-lowering effectiveness (in words),narcotised guinea pigs; i.v.,stronger action than ISDN
"CN(CCCc1ccccc1)[C@H]1CO[C@H]2[C@@H]1OC[C@@H]2O[N+](=O)[O-] [Example 21, 5-[N-Methyl-N-(3-phenylpropyl)-amino]-5-desoxy-1.4;3.6-dianhydro-L-iditol 2-nitrate]",activation at 25 µg/mL,[1],117%
same,LD50 at 24 h,[2],50 to 100 mg/kg
same,Frequency of death,female NMRI-albino mice; 50 mg/kg i.v.,0/3
same,Frequency of death,female NMRI-albino mice; 100 mg/kg i.v.,3/3
same,Frequency of death,female NMRI-albino mice; 200 mg/kg i.v.,6/6
"CN(Cc1ccccc1)[C@H]1CO[C@H]2[C@@H]1OC[C@@H]2O[N+](=O)[O-] [Example 19, 5-(N-Benzyl-N-methylamino)-5-desoxy-1.4;3.6-dianhydro-L-iditol 2-nitrate]",activation at 25 µg/mL,[1],100%
same,LD50 at 24 h,[2],100 to 200 mg/kg
same,Frequency of death,female NMRI-albino mice; 100 mg/kg i.v.,0/3
same,Frequency of death,female NMRI-albino mice; 200 mg/kg i.v.,6/6
CCN[C@H]1CO[C@H]2[C@@H]1OC[C@@H]2O[N+](=O)[O-] [10 b],activation at 25 µg/mL,[1],25.9%
same,blood pressure after,narcotised guinea pigs; 0.25 mg/kg i.v.,37.25 ± 2.06 mm.Hg
same,blood pressure Δ,narcotised guinea pigs; 0.25 mg/kg i.v.,-6.00 mm.Hg
same,blood pressure before,narcotised guinea pigs; 0.25 mg/kg i.v.,43.25 ± 2.21 mm.Hg
same,blood pressure after,narcotised guinea pigs; 1.00 mg/kg i.v.,32.00 ± 2.04 mm.Hg
same,blood pressure Δ,narcotised guinea pigs; 1.00 mg/kg i.v.,-11.25 mm.Hg
same,blood pressure after,narcotised guinea pigs; 2.50 mg/kg i.v.,27.25 ± 1.60 mm.Hg
same,blood pressure Δ,narcotised guinea pigs; 2.50 mg/kg i.v.,-15.50 mm.Hg
"C=CCc1ccccc1OCC(O)CN[C@H]1CO[C@H]2[C@@H]1OC[C@@H]2O[N+](=O)[O-] (stereo partly drawn) [Example 49, 5-[2-Hydroxy-3-(2-allylphenoxy)-propylamino]-5-desoxy-1.4;3.6-dianhydro-L-iditol 2-nitrate]",activation at 25 µg/mL,[1],191%
same,blood pressure after,narcotised guinea pigs; 0.25 mg/kg i.v.,43.50 ± 3.38 mm.Hg
same,blood pressure Δ,narcotised guinea pigs; 0.25 mg/kg i.v.,-2.25 mm.Hg
same,blood pressure before,narcotised guinea pigs; 0.25 mg/kg i.v.,45.75 ± 2.53 mm.Hg
same,blood pressure after,narcotised guinea pigs; 1.00 mg/kg i.v.,30.25 ± 1.70 mm.Hg
same,blood pressure Δ,narcotised guinea pigs; 1.00 mg/kg i.v.,-12.75 mm.Hg
same,blood pressure after,narcotised guinea pigs; 2.50 mg/kg i.v.,20.25 ± 1.03 mm.Hg
same,blood pressure Δ,narcotised guinea pigs; 2.50 mg/kg i.v.,-22.50 mm.Hg
same,blood pressure before,mongrel cats; 0.25 mg/kg i.v.,116.6 mm.Hg
same,dp/dt (inotropism) before,mongrel cats; 0.25 mg/kg i.v.,7840 mm.Hg/sec
same,heart frequency before,mongrel cats; 0.25 mg/kg i.v.,200.4 min⁻¹
same,blood pressure WD,mongrel cats; 0.25 mg/kg i.v.,2.8 min
same,blood pressure after,mongrel cats; 0.25 mg/kg i.v.,113.6 mm.Hg
same,blood pressure Δ,mongrel cats; 0.25 mg/kg i.v.,-3.0 mm.Hg
same,dp/dt (inotropism) after,mongrel cats; 0.25 mg/kg i.v.,7360 mm.Hg/sec
same,dp/dt (inotropism) Δ,mongrel cats; 0.25 mg/kg i.v.,-480 mm.Hg/sec
same,dp/dt WD,mongrel cats; 0.25 mg/kg i.v.,3.1 min
same,heart frequency after,mongrel cats; 0.25 mg/kg i.v.,201.2 min⁻¹
same,heart frequency Δ,mongrel cats; 0.25 mg/kg i.v.,+0.8 min^-1
same,blood pressure WD,mongrel cats; 0.50 mg/kg i.v.,3.7 min
same,blood pressure after,mongrel cats; 0.50 mg/kg i.v.,110.6 mm.Hg
same,blood pressure Δ,mongrel cats; 0.50 mg/kg i.v.,-9.2 mm.Hg
same,dp/dt (inotropism) after,mongrel cats; 0.50 mg/kg i.v.,6540 mm.Hg/sec
same,dp/dt (inotropism) Δ,mongrel cats; 0.50 mg/kg i.v.,-1060 mm.Hg/sec
same,dp/dt WD,mongrel cats; 0.50 mg/kg i.v.,14.0 min
same,heart frequency after,mongrel cats; 0.50 mg/kg i.v.,202.0 min⁻¹
same,heart frequency Δ,mongrel cats; 0.50 mg/kg i.v.,+2.0 min^-1
same,blood pressure WD,mongrel cats; 1.00 mg/kg i.v.,11.6 min
same,blood pressure after,mongrel cats; 1.00 mg/kg i.v.,105.8 mm.Hg
same,blood pressure Δ,mongrel cats; 1.00 mg/kg i.v.,-16.8 mm.Hg
same,dp/dt (inotropism) after,mongrel cats; 1.00 mg/kg i.v.,4680 mm.Hg/sec
same,dp/dt (inotropism) Δ,mongrel cats; 1.00 mg/kg i.v.,-2260 mm.Hg/sec
same,dp/dt WD,mongrel cats; 1.00 mg/kg i.v.,> 40 min
same,heart frequency after,mongrel cats; 1.00 mg/kg i.v.,188.4 min⁻¹
same,heart frequency Δ,mongrel cats; 1.00 mg/kg i.v.,-5.6 min⁻¹
same,blood pressure WD,mongrel cats; 2.50 mg/kg i.v.,> 10 min
same,blood pressure after,mongrel cats; 2.50 mg/kg i.v.,86.6 mm.Hg
same,blood pressure Δ,mongrel cats; 2.50 mg/kg i.v.,-35.0 mm.Hg
same,dp/dt (inotropism) after,mongrel cats; 2.50 mg/kg i.v.,3780 mm.Hg/sec
same,dp/dt (inotropism) Δ,mongrel cats; 2.50 mg/kg i.v.,-2900 mm.Hg/sec
same,dp/dt WD,mongrel cats; 2.50 mg/kg i.v.,> 10 min
same,heart frequency after,mongrel cats; 2.50 mg/kg i.v.,170.4 min⁻¹
same,heart frequency Δ,mongrel cats; 2.50 mg/kg i.v.,-20.8 min⁻¹
"O=[N+]([O-])O[C@H]1CO[C@H]2[C@@H]1OC[C@@H]2NCC(O)COc1cccc2ccccc12 (stereo partly drawn) [Example 54, 5-[2-Hydroxy-3-(1-naphthyloxy)-propylamino]-5-desoxy-1.4;3.6-dianhydro-L-iditol 2-nitrate]",activation at 25 µg/mL,[1],274%
same,blood pressure after,narcotised guinea pigs; 0.25 mg/kg i.v.,62.25 ± 8.05 mm.Hg
same,blood pressure Δ,narcotised guinea pigs; 0.25 mg/kg i.v.,-4.75 mm.Hg
same,blood pressure before,narcotised guinea pigs; 0.25 mg/kg i.v.,67.00 ± 4.51 mm.Hg
same,blood pressure after,narcotised guinea pigs; 1.00 mg/kg i.v.,56.50 ± 4.97 mm.Hg
same,blood pressure Δ,narcotised guinea pigs; 1.00 mg/kg i.v.,-10.75 mm.Hg
same,blood pressure after,narcotised guinea pigs; 2.50 mg/kg i.v.,44.75 ± 4.50 mm.Hg
same,blood pressure Δ,narcotised guinea pigs; 2.50 mg/kg i.v.,-23.75 mm.Hg
same,blood pressure before,mongrel cats; 0.25 mg/kg i.v.,115.2 mm.Hg
same,dp/dt (inotropism) before,mongrel cats; 0.25 mg/kg i.v.,8783 mm.Hg/sec
same,heart frequency before,mongrel cats; 0.25 mg/kg i.v.,188.7 min⁻¹
same,blood pressure WD,mongrel cats; 0.25 mg/kg i.v.,1.9 min
same,blood pressure after,mongrel cats; 0.25 mg/kg i.v.,103.8 mm.Hg
same,blood pressure Δ,mongrel cats; 0.25 mg/kg i.v.,-11.4 mm.Hg
same,dp/dt (inotropism) after,mongrel cats; 0.25 mg/kg i.v.,8150 mm.Hg/sec
same,dp/dt (inotropism) Δ,mongrel cats; 0.25 mg/kg i.v.,-633 mm.Hg/sec
same,dp/dt WD,mongrel cats; 0.25 mg/kg i.v.,3.9 min
same,heart frequency after,mongrel cats; 0.25 mg/kg i.v.,187.7 min⁻¹
same,heart frequency Δ,mongrel cats; 0.25 mg/kg i.v.,-1.0 min⁻¹
same,blood pressure WD,mongrel cats; 0.50 mg/kg i.v.,3.2 min
same,blood pressure after,mongrel cats; 0.50 mg/kg i.v.,101.8 mm.Hg
same,blood pressure Δ,mongrel cats; 0.50 mg/kg i.v.,-15.9 mm.Hg
same,dp/dt (inotropism) after,mongrel cats; 0.50 mg/kg i.v.,6833 mm.Hg/sec
same,dp/dt (inotropism) Δ,mongrel cats; 0.50 mg/kg i.v.,-1934 mm.Hg/sec
same,dp/dt WD,mongrel cats; 0.50 mg/kg i.v.,7.6 min
same,heart frequency after,mongrel cats; 0.50 mg/kg i.v.,186.7 min⁻¹
same,heart frequency Δ,mongrel cats; 0.50 mg/kg i.v.,-0.7 min⁻¹
same,blood pressure WD,mongrel cats; 1.00 mg/kg i.v.,5.6 min
same,blood pressure after,mongrel cats; 1.00 mg/kg i.v.,91.0 mm.Hg
same,blood pressure Δ,mongrel cats; 1.00 mg/kg i.v.,-27.8 mm.Hg
same,dp/dt (inotropism) after,mongrel cats; 1.00 mg/kg i.v.,5050 mm.Hg/sec
same,dp/dt (inotropism) Δ,mongrel cats; 1.00 mg/kg i.v.,-3283 mm.Hg/sec
same,dp/dt WD,mongrel cats; 1.00 mg/kg i.v.,15.2 min
same,heart frequency after,mongrel cats; 1.00 mg/kg i.v.,172.0 min⁻¹
same,heart frequency Δ,mongrel cats; 1.00 mg/kg i.v.,-12.0 min⁻¹
same,blood pressure WD,mongrel cats; 2.50 mg/kg i.v.,6.4 min
same,blood pressure after,mongrel cats; 2.50 mg/kg i.v.,78.5 mm.Hg
same,blood pressure Δ,mongrel cats; 2.50 mg/kg i.v.,-44.8 mm.Hg
same,dp/dt (inotropism) after,mongrel cats; 2.50 mg/kg i.v.,2817 mm.Hg/sec
same,dp/dt (inotropism) Δ,mongrel cats; 2.50 mg/kg i.v.,-5183 mm.Hg/sec
same,dp/dt WD,mongrel cats; 2.50 mg/kg i.v.,> 10 min
same,heart frequency after,mongrel cats; 2.50 mg/kg i.v.,158.3 min⁻¹
same,heart frequency Δ,mongrel cats; 2.50 mg/kg i.v.,-20.0 min⁻¹
